In ChEMBL document CHEMBL4130496, “Anticancer properties of 4-thiazolidinone derivatives depend on peroxisome proliferator-activated receptor gamma (PPARγ)” (2017):
Calls of active or inactive are those of the source. No cut-off for these calls is given here.

Key:
[1] = system: SCC-15; experiment: Cytotoxicity against human SCC15 cells assessed as increase in LDH release at 50 uM after 24 hrs by colorimetric assay relative to […]; assay type: functional
[2] = system: SCC-15; experiment: Cytotoxicity against human SCC15 cells transfected with PPARalpha siRNA assessed as increase in LDH release at 50 uM after 24 hrs by colorimetric assay; assay type: functional, cell-based
[3] = system: SCC-15; experiment: Cytotoxicity against human SCC15 cells transfected with PPARbeta siRNA assessed as increase in LDH release at 50 uM after 24 hrs by colorimetric assay relative to control; assay type: functional, cell-based
[4] = system: SCC-15; experiment: Cytotoxicity against human SCC15 cells transfected with PPARgamma siRNA assessed as increase in LDH release at 50 uM after 24 hrs by colorimetric assay relative to control; assay type: functional, cell-based
[5] = system: SCC-15; experiment: Cytotoxicity against human SCC15 cells assessed as reduction in cell viability at 50 uM after 24 hrs by resazurin reduction assay relative to control; assay type: functional
[6] = system: SCC-15; experiment: Cytotoxicity against human SCC15 cells transfected with PPARgamma siRNA assessed as reduction in cell viability at 50 uM after 24 hrs by resazurin reduction assay; assay type: functional
[7] = system: SCC-15; experiment: Induction of apoptosis in human SCC15 cells assessed as increase in caspase 3 activity at 50 uM after 24 hrs relative to control; assay type: functional
[8] = system: SCC-15; experiment: Induction of apoptosis in human SCC15 cells transfected with PPARgamma siRNA assessed as increase in caspase 3 activity at 50 uM after 24 hrs relative to control; assay type: functional
[9] = system: SCC-15; experiment: Downregulation of PPARalpha mRNA expression in human SCC15 cells at 10 uM after 4 hrs by RTqPCR analysis relative to control; assay type: functional
[10] = system: SCC-15; experiment: Downregulation of PPARalpha mRNA expression in human SCC15 cells at 50 uM after 4 hrs by RTqPCR analysis relative to control; assay type: functional
[11] = system: SCC-15; experiment: Downregulation of PPARbeta mRNA expression in human SCC15 cells at 10 uM after 4 hrs by RTqPCR analysis relative to control; assay type: functional
[12] = system: SCC-15; experiment: Downregulation of PPARbeta mRNA expression in human SCC15 cells at 50 uM after 4 hrs by RTqPCR analysis relative to control; assay type: functional
[13] = system: SCC-15; experiment: Downregulation of PPARgamma mRNA expression in human SCC15 cells at 10 uM after 4 hrs by RTqPCR analysis relative to control; assay type: functional
[14] = system: SCC-15; experiment: Downregulation of PPARgamma mRNA expression in human SCC15 cells at 50 uM after 4 hrs by RTqPCR analysis relative to control; assay type: functional
[15] = system: SCC-15; experiment: Induction of apoptosis in human SCC15 cells transfected with PPARalpha siRNA assessed as increase in caspase 3 activity at 50 uM after 24 hrs relative to control; assay type: functional, cell-based
[16] = system: SCC-15; experiment: Cytotoxicity against human SCC15 cells transfected with PPARalpha siRNA assessed as reduction in cell viability at 50 uM after 24 hrs by resazurin reduction assay; assay type: functional, cell-based
[17] = system: SCC-15; experiment: Cytotoxicity against human SCC15 cells transfected with PPARbeta siRNA assessed as reduction in cell viability at 50 uM after 24 hrs by resazurin reduction assay; assay type: functional, cell-based
[18] = system: SCC-15; experiment: Induction of apoptosis in human SCC15 cells transfected with PPARbeta siRNA assessed as increase in caspase 3 activity at 50 uM after 24 hrs relative to control; assay type: functional

Row | Compound | Activity [1] | Activity [2] | Activity [3] | Activity [4] | Activity [5] | Activity [6] | Activity [7] | Activity [8] | Activity [9] | Activity [10] | Activity [11] | Activity [12] | Activity [13] | Activity [14] | Activity [15] | Activity [16] | Activity [17] | Activity [18]
1 | CN(C)c1ccc(C2CC(c3ccccc3)=NN2C2=NC(=O)/C(=C3/C(=O)Nc4ccccc43)S2)cc1 (stereo not given) | 44.97% | Active | inactive | inactive | 13.53% | inactive | 177.42% | inactive | 28.26% | 18.66% | 31.43% | 31.92% | 24.79% | 15.27% | Active | – | – | –
2 | CN(CCOc1ccc(CC2SC(=O)NC2=O)cc1)c1ccccn1 (stereo not given) [ROSIGLITAZONE] | – | – | – | – | inactive | – | – | – | – | – | – | – | 25.54% | – | – | Active | Active | –
3 | O=C1c2ccccc2C(=O)c2sc3nc(=O)sc-3cc21 | – | – | – | – | 18.32% | inactive | 43.55% | inactive | 54.37% | 26.99% | 16.62% | – | 45.91% | 14.34% | Active | – | – | –
4 | CCc1ccc(CCOc2ccc(CC3SC(=O)NC3=O)cc2)nc1 (stereo not given) [PIOGLITAZONE] | – | – | – | – | inactive | 31.42% | inactive | 43.03% | – | – | – | – | – | 17.33% | – | Active | Active | >27.52%
5 | O=C(Cn1c2c(sc1=O)[C@@H]1c3ccccc3OC[C@H]1CS2)Nc1ccc(Cl)c(Cl)c1 | 22.95% | Active | – | inactive | 12.08% | inactive | – | – | 20.63% | – | 31.98% | – | 22.96% | – | – | – | – | –
